Literature values, collected in US10104888B2, “Tannin-chitosan composites” (WISCONSIN ALUMNI RESEARCH FOUNDATION, priority 2009, dated 2018).

Settings: in vivo

In the case of “poly(β-(1→4)-2-amino-2-deoxy-D-glucopyranose) [Chitosan]”, the LD50 is listed as greater than 16000 mg/kg.
